Values belong to the compound of their own block, whether it stands above or below them.
How the values were obtained:
rTRPV1 = target: T1, rTRPV1 (Rattus norvegicus, UniProt O35433); assay: Fluo-3 calcium imaging of TRPV1 transfected HEK293T cells; type: cell-based; conditions: 1 μM of FPP
T1 construct: transiently transfected with plasmid DNA containing polynucleotide encoding; expressed in transfected cells; host or cells: HEK293T (ATCC CRL-11268), transient
Procedure: (§1) HEK293T cell line (ATCC CRL-11268) was transiently transfected with plasmid DNA containing polynucleotide encoding […] (SEQ. ID. NO: 1), rTRPV2 (SEQ. ID. NO: 2), mTRPV3 (SEQ. ID. NO: 3), rTRPV4 (SEQ. ID. NO: 4), mTRPM8 (SEQ. ID. NO: 5) or mTRPA1 (SEQ. ID. NO: 6).
(§2) Particularly, the HEK293T cell line was transiently transfected with 3 μg/35 mm dish of rTRPV1, rTRPV2, mTRPV3, rTRPV4, mTRPM8 and mTRPA1 plasmid DNA, and 600 ng/well of pCDNA3 (Invitrogen Corp., USA; containing green fluorescent protein (GFP) cDNA) using Fugene6 (Roche Diagnostics, USA) according to manufacturer's instruction. The transformed cells were cultured in DMEM/F12 medium containing 10% FBS and 1% penicillin/streptomycin in a CO2 incubator for 24 hours. The cells were smeared on poly-L-lysine-coated glass coverslips, followed by further culture for 10-24 hours.
(§3) Particularly, the transfected cell line of Example <3-1> was loaded with Fluo-3AM (5 μM; Sigma Aldrich, USA) in the bath solution (140 mM NaCl, 5 mM KCl, 2 mM CaCl2, 1 mM MgCl2, 10 mM HEPES; adjusted to pH 7.4 with NaOH) containing 0.02% pluronic acid (Invitrogen, USA) at 37° C. for 1 hour. Calcium imaging was performed with LSM5 Pascal confocal microscope (Carl Zeiss, Germany), and time-lapse images (excitation 488 nm/emission 514 nm) were collected every 3 seconds using Carl Zeiss ratio tool software (Carl Zeiss, Germany). […]

rTRPV4 = target: T2, rTRPV4 (Rattus norvegicus, UniProt Q9ERZ8); assay: Fluo-3 calcium imaging of TRPV4 transfected HEK293T cells; type: cell-based; conditions: 1 μM of FPP
T2 construct: transiently transfected with plasmid DNA containing polynucleotide encoding; expressed in transfected cells; host or cells: HEK293T (ATCC CRL-11268), transient
T2 sequence (Q9ERZ8 whole entry): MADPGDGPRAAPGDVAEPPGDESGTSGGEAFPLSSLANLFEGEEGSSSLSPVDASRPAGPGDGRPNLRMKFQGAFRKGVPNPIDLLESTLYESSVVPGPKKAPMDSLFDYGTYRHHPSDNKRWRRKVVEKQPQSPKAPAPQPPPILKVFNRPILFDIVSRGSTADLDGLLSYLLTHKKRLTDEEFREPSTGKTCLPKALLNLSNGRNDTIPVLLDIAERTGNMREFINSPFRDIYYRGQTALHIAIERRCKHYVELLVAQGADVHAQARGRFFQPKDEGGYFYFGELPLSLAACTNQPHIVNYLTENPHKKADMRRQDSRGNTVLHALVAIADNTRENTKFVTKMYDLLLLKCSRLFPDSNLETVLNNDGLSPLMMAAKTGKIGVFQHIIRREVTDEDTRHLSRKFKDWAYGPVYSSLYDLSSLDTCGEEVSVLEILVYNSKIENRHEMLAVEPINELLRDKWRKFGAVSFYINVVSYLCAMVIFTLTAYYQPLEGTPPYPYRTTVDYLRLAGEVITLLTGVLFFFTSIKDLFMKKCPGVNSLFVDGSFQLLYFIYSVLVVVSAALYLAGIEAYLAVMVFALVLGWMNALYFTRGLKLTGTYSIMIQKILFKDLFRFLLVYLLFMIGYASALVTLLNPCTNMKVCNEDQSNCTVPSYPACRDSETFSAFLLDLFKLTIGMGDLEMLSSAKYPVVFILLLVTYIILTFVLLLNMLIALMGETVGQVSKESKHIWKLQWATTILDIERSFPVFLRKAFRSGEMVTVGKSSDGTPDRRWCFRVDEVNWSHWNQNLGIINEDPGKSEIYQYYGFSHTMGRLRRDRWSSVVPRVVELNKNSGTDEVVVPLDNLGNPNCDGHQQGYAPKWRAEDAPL
Procedure: as §1, §2, §3

mTRPV3 [1] = target: T3, mTRPV3 (Mus musculus, UniProt Q8K424, A9V); assay: Whole-cell voltage-clamp recording of mTRPV3 transfected HEK293T cells; type: cell-based; conditions: for TRPV3 activity (whole cell current): mTRPV3 transfected HEK293T cells
T3 construct: transiently transfected with plasmid DNA containing polynucleotide encoding; expressed in transfected cells; host or cells: HEK293T (ATCC CRL-11268), transient
T3 sequence (Q8K424 1-791 A9V): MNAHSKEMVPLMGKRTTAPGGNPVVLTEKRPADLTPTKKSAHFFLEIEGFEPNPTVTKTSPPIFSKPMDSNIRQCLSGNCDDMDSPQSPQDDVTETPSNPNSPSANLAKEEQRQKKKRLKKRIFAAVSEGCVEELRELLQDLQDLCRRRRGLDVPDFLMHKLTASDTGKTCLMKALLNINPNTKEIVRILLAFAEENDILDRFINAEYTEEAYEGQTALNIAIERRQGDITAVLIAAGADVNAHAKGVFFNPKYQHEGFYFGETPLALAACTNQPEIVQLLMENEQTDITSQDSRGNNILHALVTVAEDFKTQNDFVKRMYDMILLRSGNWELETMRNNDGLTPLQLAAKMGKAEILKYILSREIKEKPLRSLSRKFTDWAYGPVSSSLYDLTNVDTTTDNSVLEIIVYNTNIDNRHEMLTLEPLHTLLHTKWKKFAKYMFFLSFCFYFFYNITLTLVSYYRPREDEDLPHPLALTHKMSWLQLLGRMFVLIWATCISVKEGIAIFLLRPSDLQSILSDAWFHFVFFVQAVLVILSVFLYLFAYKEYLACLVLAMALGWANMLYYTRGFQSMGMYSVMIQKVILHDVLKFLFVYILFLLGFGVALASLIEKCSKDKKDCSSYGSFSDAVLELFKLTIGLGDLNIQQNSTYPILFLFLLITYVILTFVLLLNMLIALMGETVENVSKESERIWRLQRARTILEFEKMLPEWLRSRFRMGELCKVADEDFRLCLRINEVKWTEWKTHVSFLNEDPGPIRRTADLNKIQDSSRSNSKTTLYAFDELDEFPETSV
Procedure: as §1, §2
The mTRPV3 transfected cell line prepared in Example 1 was treated with 1 μM of FPP (Biomol, USA), 4 mM of camphor (Sigma-Aldrich, USA) and ruthenium red (RR; Sigma-Aldrich, USA) at a required time intervals as shown in FIG. 1a. Stock solutions were made using water or DMSO, and were diluted with test solutions before use.
Whole-cell voltage-clamp recording, one of the patch-clamp techniques, was performed with the transfected cell line of Example <1-1> according to the method of Bandel M, et al. (Neuron 41:849-857, 2004).
Particularly, the extracellular solution (140 mM NaCl, 5 mM KCl, 2 mM CaCl2, 1 mM MgCl2, 10 mM HEPES; titrated to pH 7.4 with NaOH) and the pipette solution (140 mM CsCl, 5 mM EGTA, 10 mM HEPES, 2.0 mM MgATP, 0.2 mM NaGTP; titrated to pH 7.2 with CSOH) were used. The potential was held at −60 mV for 250 ms, voltage-ramp pulsed from −80 mV to +80 mV for […] and returned to −60 mV for 250 ms, which was repeated without intersweep. This experiment was repeated 5 times.

rTRPV2 = target: T4, rTRPV2 (Rattus norvegicus, UniProt Q9WUD2, A713V/L151P/T158I); assay: Fluo-3 calcium imaging of TRPV2 transfected HEK293T cells; type: cell-based; conditions: 1 μM of FPP
T4 construct: transiently transfected with plasmid DNA containing polynucleotide encoding; expressed in transfected cells; host or cells: HEK293T (ATCC CRL-11268), transient
T4 sequence (Q9WUD2 1-761 L151P/T158I/A713V): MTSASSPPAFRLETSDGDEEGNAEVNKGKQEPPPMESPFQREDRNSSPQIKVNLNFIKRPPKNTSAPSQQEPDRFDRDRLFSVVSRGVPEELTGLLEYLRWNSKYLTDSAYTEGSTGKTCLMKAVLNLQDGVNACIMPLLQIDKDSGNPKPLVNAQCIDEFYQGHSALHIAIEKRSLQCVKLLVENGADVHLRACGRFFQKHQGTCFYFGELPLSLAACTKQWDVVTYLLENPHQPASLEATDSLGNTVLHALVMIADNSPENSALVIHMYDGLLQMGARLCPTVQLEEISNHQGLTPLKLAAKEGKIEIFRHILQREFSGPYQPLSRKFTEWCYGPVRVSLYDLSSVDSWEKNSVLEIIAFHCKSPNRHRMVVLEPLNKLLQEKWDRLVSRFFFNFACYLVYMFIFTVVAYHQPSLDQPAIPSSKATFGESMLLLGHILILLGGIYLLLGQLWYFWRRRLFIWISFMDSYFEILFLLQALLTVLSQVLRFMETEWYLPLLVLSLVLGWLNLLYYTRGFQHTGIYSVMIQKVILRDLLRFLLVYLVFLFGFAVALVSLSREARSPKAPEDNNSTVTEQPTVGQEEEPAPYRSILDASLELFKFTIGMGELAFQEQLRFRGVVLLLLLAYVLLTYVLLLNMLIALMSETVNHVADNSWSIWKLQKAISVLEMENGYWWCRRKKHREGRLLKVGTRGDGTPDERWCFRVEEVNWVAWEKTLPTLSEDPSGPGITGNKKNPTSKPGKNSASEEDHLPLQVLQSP
Procedure: as §1, §2, §3

mTRPM8 = target: T5, mTRPM8 (Mus musculus, UniProt Q8R4D5); assay: Fluo-3 calcium imaging of TRPM8 transfected HEK293T cells; type: cell-based; conditions: 1 μM of FPP
T5 construct: transiently transfected with plasmid DNA containing polynucleotide encoding; expressed in transfected cells; host or cells: HEK293T (ATCC CRL-11268), transient
T5 sequence (Q8R4D5 whole entry): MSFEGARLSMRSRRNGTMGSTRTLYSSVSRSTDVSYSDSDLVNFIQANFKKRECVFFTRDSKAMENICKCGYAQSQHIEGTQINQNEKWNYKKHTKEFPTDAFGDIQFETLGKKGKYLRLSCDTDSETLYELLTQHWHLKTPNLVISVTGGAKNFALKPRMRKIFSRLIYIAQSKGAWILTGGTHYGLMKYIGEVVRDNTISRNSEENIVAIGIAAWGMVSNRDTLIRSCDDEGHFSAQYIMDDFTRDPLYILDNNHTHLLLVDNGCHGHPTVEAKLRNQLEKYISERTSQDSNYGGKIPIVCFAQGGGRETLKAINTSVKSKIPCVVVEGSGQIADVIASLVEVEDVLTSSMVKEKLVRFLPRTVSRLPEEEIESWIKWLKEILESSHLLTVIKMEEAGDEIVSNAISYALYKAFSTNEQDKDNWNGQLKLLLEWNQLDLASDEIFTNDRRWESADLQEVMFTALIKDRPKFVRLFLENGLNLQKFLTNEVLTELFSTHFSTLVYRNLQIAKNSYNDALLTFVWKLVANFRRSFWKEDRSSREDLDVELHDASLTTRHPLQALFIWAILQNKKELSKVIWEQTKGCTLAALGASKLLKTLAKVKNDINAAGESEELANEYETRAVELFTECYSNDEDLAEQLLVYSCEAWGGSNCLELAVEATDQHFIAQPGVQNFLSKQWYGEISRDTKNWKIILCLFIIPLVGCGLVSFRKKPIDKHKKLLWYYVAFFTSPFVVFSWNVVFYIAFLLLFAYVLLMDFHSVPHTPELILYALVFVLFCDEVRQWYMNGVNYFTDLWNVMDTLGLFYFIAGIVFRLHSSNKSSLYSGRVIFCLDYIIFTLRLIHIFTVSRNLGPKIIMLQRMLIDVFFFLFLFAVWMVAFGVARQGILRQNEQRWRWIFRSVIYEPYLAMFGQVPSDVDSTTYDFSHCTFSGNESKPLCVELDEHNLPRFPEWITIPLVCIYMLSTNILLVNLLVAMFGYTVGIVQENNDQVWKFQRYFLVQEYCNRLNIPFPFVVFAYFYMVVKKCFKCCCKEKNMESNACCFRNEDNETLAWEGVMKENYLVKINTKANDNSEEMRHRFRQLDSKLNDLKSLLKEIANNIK
Procedure: as §1, §2, §3

HaCat skin cells = assay: Artificial wound recovery: migration and proliferation of HaCat skin cells; type: cell-based; conditions: 1 μM of FPP, 12 hours after the treatment
Procedure: HaCat (ATCC, CCL-228) cell line was seeded in a 24-well plate. The present inventors drew lines 1 mm deep on the well fully filled with the cells to make artificial wound. The wounded cells were treated with FPP (1 μM), camphor (4 mM), RR (20 μM) and GGPP (10 μM) respectively and incubated in a CO2 incubator for 12 hours. The control group was not-treated. The width of recovered wound was measured under microscope and compared with that at the beginning, which was presented as wound recovery rate. All the experiments were performed on DMEM/FBS. Floating cells, which means dead cells, after making wound, were eliminated by using PBS to eliminate variables caused by dead cells. The cells were observed under microscope (×40, IX 71 OLYMPUS), and distance was measured by using image analysis program (Meta-flour 7.1, Molecular Devices, USA).

mice = assay: Acute hind paw licking/flicking behaviors after CFA inflammatory sensitization; type: in vivo; conditions: CFA-injected right hind paw, FPP injected into hind paw, 20 minutes
Procedure: Inflammatory sensitization by FPP was investigated. Particularly, 10 μl of CFA (complete Freund's adjuvant; Sigma Aldrich, USA) was injected to the right hind paws of mice 24 hours before the FPP injection. Before the experiment, the mice were adapted for one hour to the experimental environment. 10 μl of vehicle (saline containing 3% DMSO and 0.5% Tween 80) alone or 10 μl of vehicle containing FPP (3 mM) was injected to the right hind paws of the mice. The time spent for the hind paw licking/flicking behaviors in mice were measured according to the method of Bandell M, et al. (Neuron 41:849-857, 2004) and Moqrich A, et al. (Science 307:1468-1472, 2005), for 20 minutes. Control: not-treated; Experimental group 1.20 μl of CFA+300 μM of FPP PBS solution (black circle); Experimental group 2.20 μl of CFA (white circle).

mTRPA1 = target: T6, mTRPA1 (Mus musculus, UniProt Q8BLA8); assay: Fluo-3 calcium imaging of TRPA1 transfected HEK293T cells; type: cell-based; conditions: 1 μM of FPP
T6 construct: transiently transfected with plasmid DNA containing polynucleotide encoding; expressed in transfected cells; host or cells: HEK293T (ATCC CRL-11268), transient
T6 sequence (Q8BLA8 whole entry): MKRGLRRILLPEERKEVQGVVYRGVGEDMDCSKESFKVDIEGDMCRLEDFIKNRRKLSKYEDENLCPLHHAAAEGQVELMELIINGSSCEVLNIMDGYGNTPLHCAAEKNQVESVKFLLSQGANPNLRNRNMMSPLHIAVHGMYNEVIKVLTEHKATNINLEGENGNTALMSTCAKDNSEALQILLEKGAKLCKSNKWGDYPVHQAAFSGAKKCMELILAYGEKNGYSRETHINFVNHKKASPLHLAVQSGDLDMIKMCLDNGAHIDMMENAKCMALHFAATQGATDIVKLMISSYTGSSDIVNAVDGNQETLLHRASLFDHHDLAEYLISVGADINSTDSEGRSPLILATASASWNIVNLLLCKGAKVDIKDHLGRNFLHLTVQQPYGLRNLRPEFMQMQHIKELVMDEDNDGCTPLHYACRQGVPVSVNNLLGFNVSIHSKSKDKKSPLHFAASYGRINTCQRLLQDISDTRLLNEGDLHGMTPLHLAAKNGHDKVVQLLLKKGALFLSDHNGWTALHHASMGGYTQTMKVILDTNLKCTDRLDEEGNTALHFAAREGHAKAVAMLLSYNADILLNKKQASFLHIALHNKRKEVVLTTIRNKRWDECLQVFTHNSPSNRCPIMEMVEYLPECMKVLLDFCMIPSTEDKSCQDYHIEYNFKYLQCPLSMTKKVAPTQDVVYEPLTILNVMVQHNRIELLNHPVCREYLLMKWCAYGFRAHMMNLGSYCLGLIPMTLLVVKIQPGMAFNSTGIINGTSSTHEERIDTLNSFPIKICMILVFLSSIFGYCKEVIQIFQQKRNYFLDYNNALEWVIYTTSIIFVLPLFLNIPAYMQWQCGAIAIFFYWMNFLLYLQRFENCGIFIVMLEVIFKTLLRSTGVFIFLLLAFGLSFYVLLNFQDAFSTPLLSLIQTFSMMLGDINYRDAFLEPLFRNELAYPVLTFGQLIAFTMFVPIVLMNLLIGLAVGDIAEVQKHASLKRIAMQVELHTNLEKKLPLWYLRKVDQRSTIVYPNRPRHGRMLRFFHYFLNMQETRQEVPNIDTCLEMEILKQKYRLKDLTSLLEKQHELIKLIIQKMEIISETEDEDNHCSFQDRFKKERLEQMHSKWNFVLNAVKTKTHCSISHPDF
Procedure: as §1, §2, §3

mTRPV3 [2] = target: T3, mTRPV3; assay: Fluo-3 calcium imaging of mTRPV3 transfected HEK293T cells; type: cell-based
Procedure: as §1, §2
The mTRPV3 transfected cell line prepared in Example 1 was treated with FPP at different concentrations from 0.1 to 1,000 nM.
Particularly, the transfected cell line of Example <3-1> was loaded with Fluo-3AM (5 μM; Sigma Aldrich, USA) in the bath solution (140 mM NaCl, 5 mM KCl, 2 mM CaCl2, 1 mM MgCl2, 10 mM HEPES; adjusted to pH 7.4 with NaOH) containing 0.02% pluronic acid (Invitrogen, USA) at 37° C. for 1 hour. Calcium imaging was performed with LSM5 Pascal confocal microscope (Carl Zeiss, Germany), and time-lapse images (excitation 488 nm/emission 514 nm) were collected every 3 seconds using Carl Zeiss ratio tool software (Carl Zeiss, Germany). Mean value curve of calcium influx response (n=12−62 per each experimental values) was made by Hill plot.
(§4) The TRPA1, TRPV1, TRPV2, TRPV3, TRPV4 and TRPM8 transfected cell lines prepared by the method of Example 1 and the non-transfected HEK cell line (control group) were treated with 1 μM of FPP. Calcium imaging was performed with the transfected cell lines treated as the above by the same manner as described in Example <3-2>.
as §4, with “with 10” for “with 1”, “of IPP (isopentenyl pyrophosphate: Biomol, USA) and 10 μM of GGPP (geranyl-geranyl pyrophosphate: Biomol, USA), the TRPV3 regulator analogues.” for “of FPP.”

T1 sequence (O35433 whole entry): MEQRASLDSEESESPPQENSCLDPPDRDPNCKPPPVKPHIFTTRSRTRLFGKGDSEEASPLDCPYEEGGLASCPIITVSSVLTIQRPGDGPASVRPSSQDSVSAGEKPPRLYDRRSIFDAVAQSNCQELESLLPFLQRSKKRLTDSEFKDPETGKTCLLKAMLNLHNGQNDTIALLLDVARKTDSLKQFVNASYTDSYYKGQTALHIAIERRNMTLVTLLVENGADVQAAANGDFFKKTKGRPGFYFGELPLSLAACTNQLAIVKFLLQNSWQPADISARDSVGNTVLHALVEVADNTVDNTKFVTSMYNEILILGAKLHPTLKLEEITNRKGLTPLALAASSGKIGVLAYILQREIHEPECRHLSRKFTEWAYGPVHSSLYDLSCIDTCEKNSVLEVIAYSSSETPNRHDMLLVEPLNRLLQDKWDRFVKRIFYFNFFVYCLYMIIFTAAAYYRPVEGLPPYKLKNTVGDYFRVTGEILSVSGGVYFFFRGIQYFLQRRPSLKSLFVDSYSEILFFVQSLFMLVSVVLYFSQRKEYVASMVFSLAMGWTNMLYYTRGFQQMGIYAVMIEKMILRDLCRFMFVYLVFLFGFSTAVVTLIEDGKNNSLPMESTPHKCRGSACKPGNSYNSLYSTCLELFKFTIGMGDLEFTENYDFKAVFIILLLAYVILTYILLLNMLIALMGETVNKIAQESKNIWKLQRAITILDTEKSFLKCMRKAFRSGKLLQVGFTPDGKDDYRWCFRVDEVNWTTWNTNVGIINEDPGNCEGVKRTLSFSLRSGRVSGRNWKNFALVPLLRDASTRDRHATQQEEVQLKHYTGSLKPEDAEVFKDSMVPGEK

TRPV1 activation (calcium imaging) (rTRPV1): did not exhibited activity
TRPV4 activation (calcium imaging) (rTRPV4): did not exhibited activity
TRPV3 activity (whole cell current) (mTRPV3 [1]; 1 μM of FPP, +60 mV and −60 mV): significant increase of TRPV3 activity
TRPV2 activation (calcium imaging) (rTRPV2): did not exhibited activity
TRPM8 activation (calcium imaging) (mTRPM8): did not exhibited activity
TRPA1 activation (calcium imaging) (mTRPA1): did not exhibited activity
TRPV3 activation (calcium imaging) (mTRPV3 [2]; 1 μM of FPP): activated
maximal effective dose (mTRPV3 [2]; calcium influx response, FPP 0.1 to 1,000 nM): approximately 1 μM
EC50 (mTRPV3 [2]; calcium influx response, FPP 0.1 to 1,000 nM, Hill plot, read-out: EC50 (effective concentration 50%) to TRPV3): 31.9 nM
SMILES: CC(C)=CCCC(C)=CCCC(C)=CCOP(=O)(O)OP(=O)(O)O [FPP, 3,7,11-trimethyldodeca-2,6,10-trien-1-yl trihydrogen diphosphate]
migration and proliferation of HaCat skin cells (wound recovery rate) (HaCat skin cells): significantly inhibited
hind paw licking/flicking behavior (pain) (mice): significantly increased licking/flicking behavior

SMILES: CC(C)=CCC/C(C)=C/CC/C(C)=C/CC/C(C)=C/COP(=O)(O)OP(=O)(O)O [GGPP, geranyl-geranyl pyrophosphate, reference compound]
TRPV3 activation (calcium imaging) (mTRPV3 [2]; 10 μM of analogue): did not induce TRPV3 activation

TRPV3 activity (whole cell current) on treatment with the TRP ion channel blocker (mTRPV3 [1]; ruthenium red applied to the activated mTRPV3 transfected cells): activity was reduced
SMILES: N.N.N.N.N.N.N.N.N.N.N.N.N.N.[Cl-].[Cl-].[Cl-].[Cl-].[Cl-].[Cl-].[O-2].[O-2].[Ru+3].[Ru+3].[Ru+4] [ruthenium red]

TRPV3 activity (whole cell current) (mTRPV3 [1]; camphor 4 mM): the activity was not so much increased
SMILES: CC12CCC(CC1=O)C2(C)C (centres unmarked) [camphor]
